Reference: US4088772A, “Methanodibenzocycloheptapyrroles” (E. I. Du Pont de Nemours and Company, priority 1975, dated 1978)
Read-outs that look alike come from different tables or passages of the source.

Experiments:
female white mice = assay: animal or person; conditions: Mus musculus, po
in vivo = conditions: mouse, in vivo, po
[1] = test system: phenylquinone-induced writhing; assay: Phenylquinone writhing test (analgesia); format: in vivo, mouse (Carworth CF1 S female); conditions: Mus musculus
From the text: This mouse test is predictive of analgesic response in humans. [E. Siegmund, R. Cadmus and G. Lee, Proc. Soc.
ED50 values were obtained graphically from the data.

female CF1 S mice = assay: Mouse spontaneous motor activity (activity cage); format: in vivo, mouse (CF1 S female); conditions: 0.5 h, read-out: Exploratory Loss Activity Cage ED50
Description: Mouse Spontaneous Motor Activity (Activity Cage)
Twenty-four per dose, 16- 20 g or 18-22 g, female CF1 S mice, fasted 16- 22 hours, are intubated (in pairs) with drug at t doses such as 0, 1, 3, 9, 27 and 81 mg/kg in 10 ml/kg of aqueous 1% methylcellulose. The mice are then put in separate "shoe-box" cages (12 × 7.5 × 5.3 inches plastic with a 0.33 inch mesh stainless steel lid), and 20 minutes after intubation the animals in pairs are moved to covered Woodard Photoelectric Activity Chambers (central light source type measurement floor area = 96 in^2). Ten minutes later (30 minutes after dosing) a 5-minute count is taken. Counting chamber characteristics are balanced out by counting 2 pairs of mice from each dose level in each of 6 different counting chambers. Half of each test is run in the a.m. and the other half is run in the p.m. to minimize "biological clock" variations.
Canad. Biol. 20, 239-50 (1961), raw counts are thus transformed for statistical treatment (Student's t test). The means of the square roots then are squared and an ED50 for stimulation or depression (or both) is determined graphically.

Holzman male white rats = assay: Rat approach-avoidance test (anti-anxiety); format: in vivo, rat (Holzman male white); conditions: for anti-anxiety activity: in words; for No. of Responders: 1 hr, N=6 rats
Description: Potential as anti-anxiety agents was assessed by means of the potency of these compounds in the rat approach-avoidance test.
Approach-Avoidance Test Method
18 hr. waterdeprived Holzman male white rats, 150-175 g each, were used. The apparatus consists of two interconnected chambers, the first in which the animal is placed, and a second which contains the stimulus and a water bottle. The second is fitted with an electrifiable floor. On the first day, the rats are placed in the first chamber. They are allowed three minutes to find the water bottle in the second chamber and to drink water for at least two seconds. After three successful trials on the first day the animals are given one predrug trial on the second day. Then follows a second predrug trial during which the floor of the second chamber is electrified 1.5 seconds after the rat has commenced drinking water. The animals are randomized, dosed orally, and reexposed to the test situation at 1, 2, or 4 hours after the shock trial.

[2] = read-out: Catatonia ED50, Table 1, oral, mice
[3] = read-out: Exploratory Loss Visual ED50, Table 1, oral, mice
[4] = read-out: Muscle Tone ED50, Table 1, oral, mice
[5] = read-out: Ptosis ED50, Table 1, oral, mice
[6] = read-out: Reflexes Grip ED50, Table 1, oral, mice
[7] = read-out: Reflexes Lift ED50, Table 1, oral, mice
[8] = read-out: Reflexes Pinna ED50, Table 1, oral, mice
[9] = Table 1, oral, mice, 30 minutes after dosing

SMILES | ED50 (female white mice; [2]) | ED50 (female white mice; [3]) | ED50 (female white mice; [4]) | ED50 (female white mice; [5]) | ED50 (female white mice; [6]) | ED50 (female white mice; [7]) | ED50 (female white mice; [8]) | LD50 at 24 h (in vivo) | ED50 (female CF1 S mice; po) | ED50 (in vivo) | ED50 ([1]; po, Table 1, mice) | ED50 (female CF1 S mice; [9]) | other results
c1ccc2c(c1)[C@@H]1C[C@@]3(CN(CC4CCC4)C[C@H]23)c2ccccc21 (relative stereo) [Example 19, 2-Cyclobutylmethyl-2,3,8,12b-tetrahydro-1H-3a,8-methanodibenzo[3,4:6,7]cyclohepta[1,2-c]pyrrole] | 20 mg/kg | 20 mg/kg | 12 mg/kg | 7 mg/kg | 200 mg/kg | 20 mg/kg | 12 mg/kg | > 324 mg/kg | 1 mg/kg |  |  |  | ED50 (in vivo; Tremors ED50, Table 1, mice): > 324 mg/kg; ED50 ([1]; Table 1, oral, mice): 5 mg/kg
c1ccc2c(c1)[C@@H]1C[C@@]3(CN(C[C@@H]4C[C@H]5CC[C@@H]4C5)C[C@H]23)c2ccccc21 (relative stereo) [Example 35, 2-(2-Exo-bicyclo[2.2.1]heptylmethyl)-2,3,8,12b-tetrahydro-1H-3a,8-methanodibenzo[3,4:6,7]cyclohepta[1,2-c]pyrrole] | 15 mg/kg | 8.6 mg/kg | 12 mg/kg | 5.1 mg/kg | > 324 mg/kg | 29 mg/kg | 21 mg/kg | > 324 mg/kg |  | > 324 mg/kg | 6.2 mg/kg | 3.3 mg/kg | 
CN(C)CCCN1c2ccccc2Sc2ccc(Cl)cc21 [Chlopromazine, Chlorpromazine, reference compound] |  |  |  |  |  |  |  |  | 7.3 mg/kg |  |  |  | ED50 (in vivo; Tremors ED50): > 324 mg/kg; anti-anxiety activity (Holzman male white rats): not active at non-sedating doses
CN1C(=O)CN=C(c2ccccc2)c2cc(Cl)ccc21 [Diazepam, reference compound] |  |  |  |  |  |  |  |  | 2 mg/kg |  |  |  | ED50 (in vivo; Tremors ED50, Table 1, mice): > 324 mg/kg; No. of Responders (Holzman male white rats; 1 mg/kg oral): 0; No. of Responders (Holzman male white rats; 3 mg/kg oral): 2; No. of Responders (Holzman male white rats; 10 mg/kg oral): 5; ED50 (Holzman male white rats; Rattus norvegicus, po, 1 h): 6 mg/kg; anti-anxiety activity (Holzman male white rats): active in this test
c1ccc(CN2CC3c4ccccc4C4CC3(C2)c2ccccc24)cc1 (stereo not shown) [Example 4, 2-Benzyl-2,3,8,12b-tetrahydro-1H-3a,8-methanodibenzo[3,4:6,7]cyclohepta[1,2-c]pyrrole] | 20 mg/kg | 20 mg/kg | 20 mg/kg | 20 mg/kg | > 324 mg/kg | 36 mg/kg | 300 mg/kg | > 324 mg/kg |  | > 324 mg/kg | 9.4 mg/kg | 4.6 mg/kg | 
CCCCCCN1CC2c3ccccc3C3CC2(C1)c1ccccc13 (stereo not shown) [Example 14, 2-n-Hexyl-2,3,8,12 b-tetrahydro-1H-3a,8-methanodibenzo[3,4:6,7]cyclohepta[1,2-c]pyrrole] | 5.6 mg/kg | 7 mg/kg | 4.1 mg/kg | 4.5 mg/kg | 187 mg/kg | 8.6 mg/kg | 11 mg/kg | > 324 mg/kg |  | 326 mg/kg | 2.6 mg/kg | 1.3 mg/kg | 
CCCCCCCN1CC2c3ccccc3C3CC2(C1)c1ccccc13 (stereo not shown) [Example 15, 2-n-Heptyl-2,3,8,12b-tetrahydro-1H-3a,8-methanodibenzo[3,4:6,7]cyclohepta[1,2-c]pyrrole] | 5 mg/kg |  |  | < 3 mg/kg | 260 mg/kg | 9 mg/kg |  | > 324 mg/kg |  | > 324 mg/kg | 3.6 mg/kg | 1 mg/kg | ED50 (female white mice; read-out: Exploratory Loss Visual ED50, Table 1, Extrapolated value): 3.2 mg/kg; ED50 (female white mice; read-out: Muscle Tone ED50, Table 1, Extrapolated value): 3 mg/kg
